Assay results published in article PMC10860182 (ACS Medicinal Chemistry Letters, 2024).
Where two headings read alike, the source gives them in different places.

Assays:
[1] = target: human 5-HT2A (Homo sapiens, UniProt P28223); conditions: for 5-HT2A % Max: % 5-HT Max, human 5-HT2A-CHO cells; for higher agonist potency for 5-HT2B and 5-HT2C relative to 5-HT2A: compared with 5-HT2A potency
[2] = target: human 5-HT2B (Homo sapiens, UniProt P41595); conditions: % 5-HT Max, human 5-HT2B-HEK293 cells
[3] = target: human 5-HT2C (Homo sapiens, UniProt P28335); conditions: % 5-HT Max, human 5-HT2C-CHO cells
[4] = predicted hepatic clearance, human hepatic microsomes
[5] = predicted hepatic clearance, rat
[6] = target: T1, P-gp (Homo sapiens, UniProt P08183); conditions: MDCK-MDR1 cells, 5 µM
[7] = rat PK cassette, iv, 0.2 mg/kg
[8] = in vivo; conditions: male, Sprague Dawley, rat, iv, 0.2 mg/kg
[9] = in vitro; conditions: human, plasma, pH 7.4
[10] = in vitro; conditions: rat, plasma, pH 7.4
[11] = in vitro; conditions: mouse, plasma, pH 7.4
[12] = target: T1, P-gp; experiment: in vitro; conditions: MDCK-MDR1
[13] = tested on: 5-HT2B; conditions: read-out: 5-HT2B EC50; previously described, patent application ref 20; cited from earlier work

human 5-HT2A, sequence (P28223 whole entry): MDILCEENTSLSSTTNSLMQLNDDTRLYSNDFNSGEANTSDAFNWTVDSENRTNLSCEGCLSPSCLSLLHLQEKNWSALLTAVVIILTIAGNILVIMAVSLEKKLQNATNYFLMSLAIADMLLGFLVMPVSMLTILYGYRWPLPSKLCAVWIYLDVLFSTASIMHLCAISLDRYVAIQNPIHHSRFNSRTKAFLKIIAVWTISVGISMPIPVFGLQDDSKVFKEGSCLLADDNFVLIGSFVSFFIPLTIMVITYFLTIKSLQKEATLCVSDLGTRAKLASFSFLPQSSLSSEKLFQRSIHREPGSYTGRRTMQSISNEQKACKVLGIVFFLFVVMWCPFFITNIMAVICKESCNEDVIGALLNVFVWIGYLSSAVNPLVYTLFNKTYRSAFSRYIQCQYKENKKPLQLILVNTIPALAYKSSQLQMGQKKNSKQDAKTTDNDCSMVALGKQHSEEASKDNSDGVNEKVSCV
human 5-HT2B, sequence (P41595 whole entry): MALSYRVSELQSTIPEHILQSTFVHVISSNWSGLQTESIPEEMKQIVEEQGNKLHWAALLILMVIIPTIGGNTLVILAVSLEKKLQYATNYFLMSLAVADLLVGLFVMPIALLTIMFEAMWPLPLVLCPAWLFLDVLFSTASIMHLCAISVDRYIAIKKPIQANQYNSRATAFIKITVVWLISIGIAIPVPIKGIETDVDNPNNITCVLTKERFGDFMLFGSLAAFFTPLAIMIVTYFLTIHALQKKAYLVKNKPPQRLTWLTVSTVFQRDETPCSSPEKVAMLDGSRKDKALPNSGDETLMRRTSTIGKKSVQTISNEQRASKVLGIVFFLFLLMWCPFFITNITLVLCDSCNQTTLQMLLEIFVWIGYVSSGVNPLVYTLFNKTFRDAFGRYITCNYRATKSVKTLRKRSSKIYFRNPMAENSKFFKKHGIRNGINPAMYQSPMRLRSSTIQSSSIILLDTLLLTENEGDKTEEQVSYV
human 5-HT2C, sequence (P28335 33-458): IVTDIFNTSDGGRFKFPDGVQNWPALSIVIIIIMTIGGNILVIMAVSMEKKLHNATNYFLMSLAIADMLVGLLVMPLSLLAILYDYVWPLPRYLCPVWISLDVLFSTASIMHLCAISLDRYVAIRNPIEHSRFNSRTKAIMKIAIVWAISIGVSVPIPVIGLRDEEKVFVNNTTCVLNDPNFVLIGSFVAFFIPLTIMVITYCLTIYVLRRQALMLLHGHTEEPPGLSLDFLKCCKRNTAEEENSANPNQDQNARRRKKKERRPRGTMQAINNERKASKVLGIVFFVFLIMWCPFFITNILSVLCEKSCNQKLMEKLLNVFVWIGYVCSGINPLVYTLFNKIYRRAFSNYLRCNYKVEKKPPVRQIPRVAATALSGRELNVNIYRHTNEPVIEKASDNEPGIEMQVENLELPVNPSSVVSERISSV
T1 sequence (P08183 whole entry): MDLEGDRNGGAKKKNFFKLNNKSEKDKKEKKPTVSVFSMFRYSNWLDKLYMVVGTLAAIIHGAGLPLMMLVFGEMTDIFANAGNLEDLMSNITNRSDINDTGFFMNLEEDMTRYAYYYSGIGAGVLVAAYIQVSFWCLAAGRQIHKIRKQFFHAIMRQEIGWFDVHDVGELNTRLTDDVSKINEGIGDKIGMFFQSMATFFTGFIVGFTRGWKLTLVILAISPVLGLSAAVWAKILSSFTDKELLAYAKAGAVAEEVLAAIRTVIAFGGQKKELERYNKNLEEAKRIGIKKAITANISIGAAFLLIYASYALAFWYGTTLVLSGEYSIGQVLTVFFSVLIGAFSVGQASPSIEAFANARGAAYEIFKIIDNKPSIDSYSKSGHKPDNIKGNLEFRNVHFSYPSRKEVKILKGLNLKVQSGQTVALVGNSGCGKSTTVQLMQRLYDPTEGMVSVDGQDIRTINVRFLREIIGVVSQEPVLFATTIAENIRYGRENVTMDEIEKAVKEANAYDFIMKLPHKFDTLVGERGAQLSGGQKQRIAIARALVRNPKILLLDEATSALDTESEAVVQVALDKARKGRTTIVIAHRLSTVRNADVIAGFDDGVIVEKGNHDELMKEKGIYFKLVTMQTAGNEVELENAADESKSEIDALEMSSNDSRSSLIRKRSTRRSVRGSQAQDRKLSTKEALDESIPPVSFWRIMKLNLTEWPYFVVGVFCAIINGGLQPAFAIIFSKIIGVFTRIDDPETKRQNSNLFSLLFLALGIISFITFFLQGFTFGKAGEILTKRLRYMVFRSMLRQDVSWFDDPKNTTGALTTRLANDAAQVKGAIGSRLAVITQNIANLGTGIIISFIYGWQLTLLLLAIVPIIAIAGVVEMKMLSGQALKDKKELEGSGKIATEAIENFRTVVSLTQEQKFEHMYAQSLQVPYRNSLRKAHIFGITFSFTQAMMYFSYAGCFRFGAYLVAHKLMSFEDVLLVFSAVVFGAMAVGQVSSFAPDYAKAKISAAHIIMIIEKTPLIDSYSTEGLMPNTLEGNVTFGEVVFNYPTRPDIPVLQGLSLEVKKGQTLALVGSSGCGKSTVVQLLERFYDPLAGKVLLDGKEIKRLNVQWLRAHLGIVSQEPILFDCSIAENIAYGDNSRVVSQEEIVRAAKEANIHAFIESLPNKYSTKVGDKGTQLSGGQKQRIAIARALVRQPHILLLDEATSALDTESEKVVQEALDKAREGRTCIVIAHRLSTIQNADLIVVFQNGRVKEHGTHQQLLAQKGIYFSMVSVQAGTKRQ

| Structure (SMILES) | 5-HT2A % Max [1] | 5-HT2B % Max [2] | 5-HT2C % Max [3] | CLhep [4] | also measured |
| --- | --- | --- | --- | --- | --- |
| [2H]C([2H])(Cc1n[nH]c2ccc(OC)cc12)N(C)C [Compound 6b] | 11.7 ± 0.6% | 60.5% | 32.3% | 11.7 (mL/min)/kg | – |
| Cn1nc(C2=CCCNC2)c2ccccc21 [Compound 19b] | 42.2 ± 3.7% | 48.0 ± 4.8% | 50.3 ± 2.4% | – | higher agonist potency for 5-HT2B and 5-HT2C relative to 5-HT2A [1]: approximately 10 fold |
| Brc1ccc2[nH]nc(C3=CCCNC3)c2c1 [Compound 19d] | 41.4 ± 3.4% | 82.8 ± 1.9% | 93.9% | 5.6 (mL/min)/kg | CLhep [5]: 58 (mL/min)/kg; PappA-B [6]: 7.9 10^–6 cm/s; CLp [7]: 34.2 (mL/min)/kg; Kp at 0.25 h ([8]; brain): 5.4; Vd at 24 h ([8]; plasma): 6.33 L/kg; half-life at 24 h ([8]; plasma): 2.8 h; fraction unbound at 6 h, 5 µM [9]: 0.12; fraction unbound at 6 h, 5 µM [10]: 0.13; fraction unbound at 6 h, 5 µM [11]: 0.12; efflux ratio at 5 µM [12]: 1.3 |
| COc1ccc2[nH]nc(CCN(C)C)c2c1 [Compound 6a] | 10.7 ± 0.6% | 48.0 ± 7.6% | 32.1 ± 2.2% | 12.1 (mL/min)/kg | EC50 [13]: > 10 µM |
| Nc1ccc2[nH]nc(C3=CCCNC3)c2c1 [Compound 19e] | 40.4 ± 1.3% | 96.1% | 86.9% | – | – |
| COc1ccc2[nH]nc(C3=CCCNC3)c2c1 [Compound 19f] | 12.3 ± 1.8% | 93.6% | 59.8 ± 3.2% | – | – |
| C1=C(c2n[nH]c3ccccc23)CNCC1 [Compound 19a] | 17.5 ± 3.2% | 83.8 ± 1.9% | 67.7 ± 6.6% | – | higher agonist potency for 5-HT2B and 5-HT2C relative to 5-HT2A [1]: approximately 10 fold |
| CN(C)CCc1n[nH]c2ccc(O)cc12 [Compound 16] | 26.2 ± 1.4% | 53.7% | 53.3% | – | – |
